The target of assay [1] is T1, human Cystic Fibrosis Transmembrane Conductance Regulator (CFTR) harboring the ΔF508 mutation (Homo sapiens, UniProt P13569, DEL508-508).
T1 construct: expressed in transfected cells; host or cells: H441 carcinoma cell line (G418 selection)
The assay is described as follows: H441 cell Emax and EC50: HRP-tagged ΔF508-CFTR cell-surface luminescence assay. As to conditions: H441 cells expressing HRP-tagged ΔF508-CFTR, 27° C. for two nights; for EC50: 15-point dose-response; for Emax: NCI-H441, % of maximum VX809 signal. In kind it is cell-based. From the text:
Example 36: H441 Cell Emax and EC50
Two cell lines were used, the H441 carcinoma line and the CFHBE41o− (41o−) human bronchial epithelial line. Both cell lines expressed human Cystic Fibrosis Transmembrane Conductance Regulator (CFTR) harboring the ΔF508 mutation and with an in-frame fusion in CFTR extracellular loop 4 of Horse Radish Peroxidase (HRP) under control of the CMV promoter. In the presence of the HRP tag, ΔF508-CFTR transported to the cell surface was detectable upon addition of an HRP substrate (Luminata Forte). Both cell types were cultivated at 37° C. with CO2.
For both cell types, the medium was changed every other day unless the culture was at low % confluence. Cells were used for the assays at ˜75% confluence.
DMSO/Compound Dilutions Plate for 15-Point Dose-Response Testing
To a polypropylene (PP) 384-well plate, 15 μls DMSO was added to all wells in columns 1-22 and 24 (low Control). 15 μls of 260 μM VX809 (Lumacaftor), Selleckchem S1565, was added to column 23 wells (high Control). 15 μls of 10 mM test compound or VX809 (control) were added to wells of row A. Serial dilutions of Row A compound were performed 2×15 μls in rows A through 0 (15-point).
A PP, 384-well plate containing the appropriate cell culture medium was prepared for each assay plate with 100 μls per well. For the doxycycline-induced 41o− cells, doxycycline for both the assay plate and the medium dilution plate was added at 0.0005 mg/ml to the medium.
Both cell lines were plated for the assay at 30 μls per 384-well at 3.4×10^e5 cells per ml (˜10K cells/well). H441 cells were plated on opaque, white, Corning plate 3704. 41o− cells were plated on collagen-coated opaque, white, Corning plate 356665. For 41o− cells, doxycycline was added to the medium.
Compound Addition/Assay Incubation
Using FX (Beckman) protocol, 10 μls diluted compound or medium was added per well to the Assay Plate as: 2 μls DMSO Dilution plate well is diluted in 100 μls of the Medium Dilution Plate well, mixed, and 10 μls is transferred to the Assay Plate.
The final assay dilution series is 24.5, 12.3, 6.1, 3.1, 1.5, 0.8, 0.4, 0.2, 0.1, 0.05, 0.02, 0.01, 0.006, 0.003, 0.001 and 0 μM. The 41o− assay plates were incubated at 37° C. w/CO2, the H441 assay plates were incubated at 27° C. w/CO2, each overnight for two nights.
Assay Result Determination
After being brought to room temperature, the assay plate liquid was removed. 30 uls of Luminata Forte (Millipore ELLUF0100) was added per well and incubated at room temperature for 10 min. The plates were then read on a Topcount, protocol LumiMatti (CPS, luminescence). The data was analyzed for % of maximum, maximum VX809 signal, and EC50 using Pearl and SPEED tools.

Assay [2] concerns the target T2, CFTR (ΔF508 homozygous CF-HBE cells) (Homo sapiens, UniProt P13569, DEL508-508).
T2 construct: Primary human bronchial epithelial cells from a ΔF508 homozygous CF donor; host or cells: primary CF-HBE cells (ΔF508/ΔF508 donor)
The assay is described as follows: TECC24 AUC fold over DMSO @10 uM: CFTR-mediated transepithelial chloride transport in primary CF-HBE cells. Particulars: 10 μM test agent, 48 hours, forskolin-stimulated IEQ AUC divided by vehicle AUC. In kind it is cell-based. As for the experimental part:
Example 37: TECC24 AUC Fold Over DMSO @10 uM
The effects of a test agent on CFTR-mediated transepithelial chloride transport was measured using TECC24 recording analysis. Test agents were solubilized in DMSO. Solubilized test agents were mixed with incubation medium containing DMEM/F12, Ultroser G (2%; Crescent Chemical, catalog #67042), Hyclone Fetal Clone 11(2%; GE Healthcare, catalog #SH30066.02), bovine brain extract (0.25%; Lonza, catalog #CC-4098), insulin (2.5 μg/mL), IL-13 (10 ng/mL), hydrocortisone (20 nM), transferrin (2.5 μg/mL), triiodothyronine (500 nM), ethanolamine (250 nM), epinephrine (1.5 μM), phosphoethanolamine (250 nM), and retinoic acid (10 nM). Primary human bronchial epithelial cells from a ΔF508 homozygous CF donor (CF-HBE cells; from University of North Carolina Cystic Fibrosis Tissue Procurement Center), grown on Transwell HTS 24-well cell culture inserts (Costar, catalog #3378), were exposed to test agents or controls dissolved in incubation medium. The CF-HBE cells were cultured at 36.5° C. for 48 hours before TECC24 recordings were performed in the presence or absence of test agent, a positive control or vehicle (DMSO).
Following incubation, the transwell cell culture inserts containing the test agent or control-treated CF-HBE cells were loaded onto a TECC24 apparatus (TECC v7 or MTECC v2; EP Design) to record the transepithelial voltage (VT) and resistance (TEER) using 4 AgCl electrodes per well configured in current-clamp mode. The apical and basolateral bath solutions both contained (in mM) 140 NaCl, 5 KCl, 2 CaCl2, 1 MgCl2, 10 Hepes, and 10 glucose (adjusted to pH 7.4 with NaOH). To inhibit basal Na+ absorption, the ENaC inhibitor benzamil (10 μM) was added to the bath. Then, the adenylate cyclase activator, forskolin (10 μM), was added to the bath to activate CFTR. The forskolin-stimulated Cl— transport was halted by addition of CFTR inhibitor-172 (20 μM) to the bath at the end of the experiment to confirm specificity. VT and TEER recordings were digitally acquired at routine intervals using TECC or MTECC software (EP Design). VT and TEER were transformed into equivalent transepithelial Cl-current (IEQ), and the Area Under the Curve (AUC) of the IEQ time course between forskolin and CFTR inhibitor-172 addition is generated using Excel (Microsoft). Efficacy is expressed as the ratio of the test agent AUC divided by vehicle AUC. EC50s based on AUC are generated using the non-linear regression log(agonist) vs. response function in Prism software (GraphPad) with Hill Slope fixed=1.
If a test agent increased the AUC of the forskolin-stimulated IEQ relative to vehicle in CF-HBE cells, and this increase was inhibited by CFTR inhibitor-172, then the test agent was considered a CFTR corrector.

T1 sequence (P13569 with tags, fused parts or gaps DEL508-508): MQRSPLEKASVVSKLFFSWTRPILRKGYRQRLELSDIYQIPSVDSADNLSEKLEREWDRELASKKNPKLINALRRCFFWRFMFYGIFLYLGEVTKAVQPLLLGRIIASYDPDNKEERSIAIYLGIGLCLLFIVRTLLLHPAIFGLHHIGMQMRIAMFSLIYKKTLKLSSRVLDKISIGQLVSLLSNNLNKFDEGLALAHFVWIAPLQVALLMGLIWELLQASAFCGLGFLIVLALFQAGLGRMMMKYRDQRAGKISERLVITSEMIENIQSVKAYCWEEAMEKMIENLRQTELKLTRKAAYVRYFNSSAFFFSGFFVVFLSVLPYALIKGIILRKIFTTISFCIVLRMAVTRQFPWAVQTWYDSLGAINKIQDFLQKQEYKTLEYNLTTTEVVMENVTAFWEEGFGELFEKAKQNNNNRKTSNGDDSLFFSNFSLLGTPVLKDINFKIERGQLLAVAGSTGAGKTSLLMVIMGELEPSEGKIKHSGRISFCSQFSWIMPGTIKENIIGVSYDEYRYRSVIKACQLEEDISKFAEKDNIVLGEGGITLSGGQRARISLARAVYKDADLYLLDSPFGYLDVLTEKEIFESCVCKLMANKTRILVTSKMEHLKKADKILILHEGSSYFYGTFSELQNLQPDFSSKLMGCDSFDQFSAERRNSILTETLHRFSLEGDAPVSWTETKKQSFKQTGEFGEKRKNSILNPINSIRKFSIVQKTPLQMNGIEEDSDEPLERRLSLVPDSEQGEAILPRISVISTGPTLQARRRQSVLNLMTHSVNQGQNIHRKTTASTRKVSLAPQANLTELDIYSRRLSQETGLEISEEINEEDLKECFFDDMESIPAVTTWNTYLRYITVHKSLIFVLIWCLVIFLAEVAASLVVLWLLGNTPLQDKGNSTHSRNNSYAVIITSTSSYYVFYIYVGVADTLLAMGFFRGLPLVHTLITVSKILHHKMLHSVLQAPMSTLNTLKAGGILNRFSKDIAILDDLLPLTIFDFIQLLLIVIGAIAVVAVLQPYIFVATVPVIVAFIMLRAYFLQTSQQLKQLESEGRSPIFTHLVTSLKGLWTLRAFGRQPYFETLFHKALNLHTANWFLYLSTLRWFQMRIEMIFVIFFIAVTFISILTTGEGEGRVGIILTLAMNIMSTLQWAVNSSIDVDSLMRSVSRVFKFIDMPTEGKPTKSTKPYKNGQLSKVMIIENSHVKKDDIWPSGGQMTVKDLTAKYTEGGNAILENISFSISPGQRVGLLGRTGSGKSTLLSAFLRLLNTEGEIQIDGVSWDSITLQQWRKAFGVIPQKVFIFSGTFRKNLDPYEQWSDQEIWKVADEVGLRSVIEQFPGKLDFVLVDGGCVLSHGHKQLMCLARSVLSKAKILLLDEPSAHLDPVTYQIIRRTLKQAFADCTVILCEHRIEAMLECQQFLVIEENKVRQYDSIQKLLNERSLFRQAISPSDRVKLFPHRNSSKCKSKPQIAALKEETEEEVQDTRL
T2 sequence (P13569 with tags, fused parts or gaps DEL508-508): as above

For `CC(C)(c1ccccc1)C(NC(=O)c1ccc2sccc2c1OCC1CCC(F)(F)CC1)C(=O)O` (centres unmarked) [Compound 32-2, 2-(4-((4,4-difluorocyclohexyl)methoxy)-benzo[b]thiophene-5-carboxamido)-3-methyl-3-phenylbutanoic acid], in assay [1], the EC50 (as a rule, the concentration at which the effect is half-maximal) came to 3.2 µM and the Emax (in general, the greatest response seen or fitted, relative to the assay's reference) is 112%. In assay [2], the “TECC24 AUC fold over DMSO” value is recorded as “C (“C” refers to AUC @10 μM < 4)”.

In assay [1], `CC1(C(NC(=O)c2ccc3sccc3c2OCC2CCC(F)(F)CC2)C(=O)O)CCCCC1` (centres unmarked) [Compound 32-4, 2-(4-((4,4-difluorocyclohexyl)methoxy)-benzo[b]thiophene-5-carboxamido)-2-(1-methylcyclohexyl)acetic acid] registered an EC50 of 4.37 µM and a maximum response (Emax) of 78.7%. Also, the “TECC24 AUC fold over DMSO” value in assay [2] is “C (“C” refers to AUC @10 μM < 4)”.

With `CC(C)(c1ccccc1)C(NC(=O)c1ccc2sccc2c1OCc1ccc(SC(F)(F)F)cc1)C(=O)O` (centres unmarked) [Compound 32-5, 3-methyl-3-phenyl-2-(4-((4-((trifluoromethyl)thio)benzyl)oxy)-benzo[b]thiophene-5-carboxamido)butanoic acid], in assay [1], the EC50 was found to be 0.496 µM and the maximal response (Emax) is 93.5%. Also, the “TECC24 AUC fold over DMSO” value in assay [2] is “C (“C” refers to AUC @10 μM < 4)”.

In assay [1], `CC1(C(NC(=O)c2ccc3sccc3c2OCc2ccc(OC(F)(F)F)cc2)C(=O)O)CCCCC1` (centres unmarked) [Compound 32-6, 2-(1-methylcyclohexyl)-2-(4-((4-(trifluoromethoxy)benzyl)oxy)-benzo[b]thiophene-5-carboxamido)acetic acid] came in with an EC50 of 3.3 µM and a maximum response (Emax) of 142%. The “TECC24 AUC fold over DMSO” value in assay [2] is given as “C (“C” refers to AUC @10 μM < 4)”.

For `CC(C)(C)[C@H](NC(=O)c1ccc2sccc2c1OCC1CCC(F)(F)CC1)C(=O)O` [Compound 32-7, (2S)-2-(4-((4,4-difluorocyclohexyl)methoxy)-benzo[b]thiophene-5-carboxamido)-3,3-dimethylbutanoic acid], in assay [1], the half-maximal effective concentration (EC50) was 6.89 µM and the Emax turned out to be 127%. The “TECC24 AUC fold over DMSO” value in assay [2] was “C (“C” refers to AUC @10 μM < 4)”.

In assay [1], `CC(C)(C)[C@H](NC(=O)c1ccc2sccc2c1OCc1ccc(OC(F)F)cc1)C(=O)O` [Compound 32-8, (2S)-2-(4-((4-(difluoromethoxy)benzyl)oxy)-benzo[b]thiophene-5-carboxamido)-3,3-dimethylbutanoic acid] registered an EC50 of 4.56 µM and an Emax of 4.1%.

In assay [1], `CC(C)(C)[C@H](NC(=O)c1ccc2sccc2c1OCc1ccc(C(F)(F)F)cc1)C(=O)O` [Compound 32-9, (2S)-3,3-dimethyl-2-(4-((4-(trifluoromethyl)benzyl)oxy)-benzo[b]thiophene-5-carboxamido)butanoic acid] returned an EC50 of 1.08 µM and a maximal effect (Emax) of 193%. The “TECC24 AUC fold over DMSO” value in assay [2] is listed as “C (“C” refers to AUC @10 μM < 4)”.

In assay [1], `CCC(C)(C)[C@H](NC(=O)c1ccc2sccc2c1OCC1CCC(F)(F)CC1)C(=O)O` [Compound 32-10, (2S)-2-(4-((4,4-difluorocyclohexyl)methoxy)-benzo[b]thiophene-5-carboxamido)-3,3-dimethylpentanoic acid] displayed an EC50 of 7.31 µM and a maximum response (Emax) of 85.3%. Moreover, the “TECC24 AUC fold over DMSO” value in assay [2] is “C (“C” refers to AUC @10 μM < 4)”.

Turning to `CC(C)(C)[C@H](NC(=O)c1ccc2sc(C(F)F)nc2c1OCc1ccc(C(F)(F)F)cc1)C(=O)O` [Compound 35-4, (2S)-2-[[2-(difluoromethyl)-4-[[4-(trifluoromethyl)phenyl]methoxy]-1,3-benzothiazole-5-carbonyl]amino]-3,3-dimethyl-butanoic acid], the “TECC24 AUC fold over DMSO” value in assay [2] is on record as “A (“A” refers to AUC @10 μM > 6)”.

Consider `CC(C)(C)[C@H](NC(=O)c1ccc2sc(C3CC3)nc2c1OCc1ccc(C(F)(F)F)cc1)C(=O)O` [Compound 35-5, (2S)-2-[[2-cyclopropyl-4-[[4-(trifluoromethyl)phenyl]methoxy]-1,3-benzothiazole-5-carbonyl]amino]-3,3-dimethyl-butanoic acid], for which the “TECC24 AUC fold over DMSO” value in assay [2] was “A (“A” refers to AUC @10 μM > 6)”.

For `CCC(C)(C)[C@H](NC(=O)c1ccc2sc(C3CC3)nc2c1OCc1ccc(C(F)(F)F)cc1)C(=O)O` [Compound 35-6, (2S)-2-[[2-cyclopropyl-4-[[4-(trifluoromethyl)phenyl]methoxy]-1,3-benzothiazole-5-carbonyl]amino]-3,3-dimethyl-pentanoic acid], the “TECC24 AUC fold over DMSO” value in assay [2] was “A (“A” refers to AUC @10 μM > 6)”.

In the case of `CC(C)(C)[C@H](NC(=O)c1ccc2sc(C3CCCC3)nc2c1OCc1ccc(C(F)(F)F)cc1)C(=O)O` [Compound 35-7, (2S)-2-[[2-cyclopentyl-4-[[4-(trifluoromethyl)phenyl]methoxy]-1,3-benzothiazole-5-carbonyl]amino]-3,3-dimethyl-butanoic acid], the “TECC24 AUC fold over DMSO” value in assay [2] is listed as “A (“A” refers to AUC @10 μM > 6)”.

Turning to `CC(C)(C)[C@H](NC(=O)c1ccc2sc(C3(F)CC3)nc2c1OCc1ccc(C(F)(F)F)cc1)C(=O)O` [Compound 35-8, (2S)-2-[[2-(1-fluorocyclopropyl)-4-[[4-(trifluoromethyl)phenyl]methoxy]-1,3-benzothiazole-5-carbonyl]amino]-3,3-dimethyl-butanoic acid], the “TECC24 AUC fold over DMSO” value in assay [2] is given as “A (“A” refers to AUC @10 μM > 6)”.

With `CC(C)(C)[C@H](NC(=O)c1ccc2sc(C3CCC3)nc2c1OCc1ccc(C(F)(F)F)cc1)C(=O)O` [Compound 35-9, (2S)-2-[[2-cyclobutyl-4-[[4-(trifluoromethyl)phenyl]methoxy]-1,3-benzothiazole-5-carbonyl]amino]-3,3-dimethyl-butanoic acid], the “TECC24 AUC fold over DMSO” value in assay [2] is given as “A (“A” refers to AUC @10 μM > 6)”.

Values taken from patent US12630521B2, “Arylamides and methods of use thereof” (Genzyme Corporation, priority 2019, dated 2026).
